Test results: US8354422B2, “Pyrimidine inhibitors of kinase activity” (Abbott Laboratories Inc., priority 2009, dated 2013)

Biological target: T1, C-terminal GST-tagged, recombinant, human IGF-1R, amino acids 954-1367 (Homo sapiens, UniProt P08069)
T1 construct: human IGF-1R, amino acids 954-1367 expressed by baculovirus in Sf21 cells; GST (C); purchased Cell Signaling Technology; host or cells: baculovirus in Sf21 cells
Experiment: IGF-1R kinase activity, homogenous time-resolved fluorescence (HTRF) in vitro kinase assay
Format: biochemical
Details: IGF-1R kinase HTRF assay, ATP 50 μM, biotinylated peptide substrate 0.5 μM, 60 minutes at room temperature
Procedure: IGF-1R kinase activity was assayed by a homogenous time-resolved fluorescence (HTRF) in vitro kinase assay (Mathis, G., HTRF(R) Technology. J Biomol Screen, 1999. 4(6): p. 309-314). Specifically, 10 μL C-terminal GST-tagged, recombinant, human IGF-1R, amino acids 954-1367 expressed by baculovirus in Sf21 cells (Cell Singaling Technology) was mixed with 10 μL inhibitor (various concentrations, 2% final DMSO) and 10 μL of ATP (50 μM final concentration) in reaction buffer (50 mM HEPES, pH […], 2 mM MnCl2, 0.1% BSA and 1 mM DTT, 40 μL final volume). The reaction was initiated by addition of 10 μL of biotinylated peptide substrate (Biotin-Ahx-[…], 0.5 μM final concentration) in a black 384-well plate (Packard). After 60 minutes incubation at room temperature, the reaction was quenched by addition of 60 μL stop/revelation buffer to give 30 mM EDTA, 1 μg/mL streptavidin-APC (Prozyme), 50 ng/mL anti-phosphotyrosine mAb PT66-K Europium Cryptate, 30 mM HEPES, pH 7.5, 120 mM KF, 0.005% Tween-20, 0.05% BSA). The quenched reaction was allowed to stand at room temperature for 1 hour and then read in a time-resolved fluorescence detector (Envision, Perkin Elmer) at 615 nm and 665 nm simultaneously. The ratio between the signal of 615 nm and 665 nm was used in the calculation of the IC50.

T1 sequence (P08069 954-1367): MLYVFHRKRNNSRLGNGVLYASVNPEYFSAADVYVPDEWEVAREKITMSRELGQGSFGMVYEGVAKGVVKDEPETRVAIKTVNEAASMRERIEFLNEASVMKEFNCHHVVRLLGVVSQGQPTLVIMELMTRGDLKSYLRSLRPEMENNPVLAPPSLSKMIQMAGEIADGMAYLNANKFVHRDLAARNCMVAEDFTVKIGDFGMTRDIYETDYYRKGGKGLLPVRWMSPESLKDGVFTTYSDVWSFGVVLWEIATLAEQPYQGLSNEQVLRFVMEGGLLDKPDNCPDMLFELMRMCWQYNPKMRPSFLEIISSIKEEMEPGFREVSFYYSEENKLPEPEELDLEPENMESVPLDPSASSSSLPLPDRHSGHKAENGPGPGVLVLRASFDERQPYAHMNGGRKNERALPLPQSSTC

IC50 [nM]	Structure (SMILES)
101 to 500	COc1ccc(N2CCOCC2)cc1Nc1nccc(-c2c(-c3ccc(OCc4ccccc4)c(OC)c3)nc3ccccn23)n1 [Example 52, 4-{2-[4-(benzyloxy)-3-methoxyphenyl]imidazo[1,2-a]pyridin-3-yl}-N-(2-methoxy-5-morpholin-4-ylphenyl)pyrimidin-2-amine]
101 to 500	COc1cc(NCC(=O)O)ccc1Nc1nccc(-c2c(-c3ccc(OCc4ccccc4)c(OC)c3)nc3ccccn23)n1 [Example 53, N-{4-[(4-{2-[4-(benzyloxy)-3-methoxyphenyl]imidazo[1,2-a]pyridin-3-yl}pyrimidin-2-yl)amino]-3-methoxyphenyl}glycine]
101 to 500	COc1cc(-c2nc3ccccn3c2-c2ccnc(Nc3cnn(CCN4CCCCC4)c3)n2)ccc1OCc1ccccc1 [Example 54, 4-{2-[4-(benzyloxy)-3-methoxyphenyl]imidazo[1,2-a]pyridin-3-yl}-N-[1-(2-piperidin-1-ylethyl)-1H-pyrazol-4-yl]pyrimidin-2-amine]
25 to 100	COc1cc(-c2nc3ccccn3c2-c2ccnc(Nc3cnn(CCN4CCOCC4)c3)n2)ccc1OCc1ccccc1 [Example 55, 4-{2-[4-(benzyloxy)-3-methoxyphenyl]imidazo[1,2-a]pyridin-3-yl}-N-[1-(2-morpholin-4-ylethyl)-1H-pyrazol-4-yl]pyrimidin-2-amine]
101 to 500	COc1cc(N2CCC(N3CCSCC3)CC2)ccc1Nc1nccc(-c2c(-c3ccc(OCc4ccccc4)c(OC)c3)nc3ccccn23)n1 [Example 56, 4-{2-[4-(benzyloxy)-3-methoxyphenyl]imidazo[1,2-a]pyridin-3-yl}-N-[2-methoxy-4-(4-thiomorpholin-4-ylpiperidin-1-yl)phenyl]pyrimidin-2-amine]
< 25	COc1cc(C2CCNCC2)ccc1Nc1nccc(-c2c(-c3ccc(OCc4ccccc4)c(OC)c3)nc3ccccn23)n1 [Example 57, 4-{2-[4-(benzyloxy)-3-methoxyphenyl]imidazo[1,2-a]pyridin-3-yl}-N-(2-methoxy-4-piperidin-4-ylphenyl)pyrimidin-2-amine]
> 1000	FC(F)(F)Oc1cc(-c2nc3ccccn3c2-c2ccnc(Nc3cccc(CCN4CCCC4)c3)n2)ccc1OCc1ccccc1 [Example 58, 4-{2-[4-(benzyloxy)-3-(trifluoromethoxy)phenyl]imidazo[1,2-a]pyridin-3-yl}-N-[3-(2-pyrrolidin-1-ylethyl)phenyl]pyrimidin-2-amine]
25 to 100	COc1ccc(CCN(C)C)cc1Nc1nccc(-c2c(-c3ccc(OCc4ccccc4)c(OC)c3)nc3ccccn23)n1 [Example 59, 4-{2-[4-(benzyloxy)-3-methoxyphenyl]imidazo[1,2-a]pyridin-3-yl}-N-{5-[2-(dimethylamino)ethyl]-2-methoxyphenyl}pyrimidin-2-amine]
25 to 100	COc1cc(-c2nc3ccccn3c2-c2ccnc(Nc3ccc4c(c3)CN(C)CC4)n2)ccc1OCc1ccccc1 [Example 60, N-(4-{2-[4-(benzyloxy)-3-methoxyphenyl]imidazo[1,2-a]pyridin-3-yl}pyrimidin-2-yl)-2-methyl-1,2,3,4-tetrahydroisoquinolin-7-amine]
< 25	COc1cc(-c2nc3ccccn3c2-c2ccnc(Nc3ccc4c(c3)CCNC4)n2)ccc1OCc1ccccc1 [Example 61, N-(4-{2-[4-(benzyloxy)-3-methoxyphenyl]imidazo[1,2-a]pyridin-3-yl}pyrimidin-2-yl)-1,2,3,4-tetrahydroisoquinolin-6-amine]
25 to 100	COc1cc(-c2nc3ccccn3c2-c2ccnc(Nc3ccc4c(c3)CNCC4)n2)ccc1OCc1ccccc1 [Example 62, N-(4-{2-[4-(benzyloxy)-3-methoxyphenyl]imidazo[1,2-a]pyridin-3-yl}pyrimidin-2-yl)-1,2,3,4-tetrahydroisoquinolin-7-amine]
25 to 100	COc1cc(N2CCS(=O)(=O)CC2)ccc1Nc1nccc(-c2c(-c3ccc(OCc4ccccc4)c(OC)c3)nc3ccccn23)n1 [Example 63, 4-{2-[4-(benzyloxy)-3-methoxyphenyl]imidazo[1,2-a]pyridin-3-yl}-N-[4-(1,1-dioxidothiomorpholin-4-yl)-2-methoxyphenyl]pyrimidin-2-amine]
101 to 500	COc1ccc(CN(C)CCO)cc1Nc1nccc(-c2c(-c3ccc(OCc4ccccc4)c(OC)c3)nc3ccccn23)n1 [Example 64, 2-[{3-[(4-{2-[4-(benzyloxy)-3-methoxyphenyl]imidazo[1,2-a]pyridin-3-yl}pyrimidin-2-yl)amino]-4-methoxybenzyl}(methyl)amino]ethanol]
25 to 100	COc1cc(-c2nc3ccccn3c2-c2ccnc(Nc3ccc(NC(=O)CN(C)C)cc3)n2)ccc1OCc1ccccc1 [Example 65, N^1-{4-[(4-{2-[4-(benzyloxy)-3-methoxyphenyl]imidazo[1,2-a]pyridin-3-yl}pyrimidin-2-yl)amino]phenyl}-N^2,N^2-dimethylglycinamide]
25 to 100	COc1cc(-c2nc3ccccn3c2-c2ccnc(Nc3cccc(NC(=O)CN(C)C)c3)n2)ccc1OCc1ccccc1 [Example 66, N^1-{3-[(4-{2-[4-(benzyloxy)-3-methoxyphenyl]imidazo[1,2-a]pyridin-3-yl}pyrimidin-2-yl)amino]phenyl}-N^2,N^2-dimethylglycinamide]
101 to 500	CN(C)CC(=O)Nc1cccc(Nc2nccc(-c3c(-c4ccc(OCc5ccccc5)cc4)nc4ccccn34)n2)c1 [Example 67, N^1-{3-[(4-{2-[4-(benzyloxy)phenyl]imidazo[1,2-a]pyridin-3-yl}pyrimidin-2-yl)amino]phenyl}-N^2,N^2-dimethylglycinamide]
501 to 1000	Cc1cc(-c2nc3ccccn3c2-c2ccnc(Nc3cccc(CCN(C)C)c3)n2)ccc1OCc1ccccc1 [Example 68, 4-{2-[4-(benzyloxy)-3-methylphenyl]imidazo[1,2-a]pyridin-3-yl}-N-{3-[2-(dimethylamino)ethyl]phenyl}pyrimidin-2-amine]
< 25	COc1cc(-c2nc3ccccn3c2-c2ccnc(Nc3ccc(CCN(C)C)cc3)n2)ccc1OCc1ccccc1 [Example 69, 4-{2-[4-(benzyloxy)-3-methoxyphenyl]imidazo[1,2-a]pyridin-3-yl}-N-{4-[2-(dimethylamino)ethyl]phenyl}pyrimidin-2-amine]
25 to 100	COc1cc(-c2nc3ccccn3c2-c2ccnc(Nc3cccc(CN4CCC(O)C4)c3)n2)ccc1OCc1ccccc1 (centres unmarked) [Example 70, 1-{3-[(4-{2-[4-(benzyloxy)-3-methoxyphenyl]imidazo[1,2-a]pyridin-3-yl}pyrimidin-2-yl)amino]benzyl}pyrrolidin-3-ol]
< 25	COc1ccc(NC(=O)CN(C)C)cc1Nc1nccc(-c2c(-c3ccc(OCc4ccccc4)c(OC)c3)nc3ccccn23)n1 [Example 71, N^1-{3-[(4-{2-[4-(benzyloxy)-3-methoxyphenyl]imidazo[1,2-a]pyridin-3-yl}pyrimidin-2-yl)amino]-4-methoxyphenyl}-N^2,N^2-dimethylglycinamide]
< 25	COc1ccc(NC(=O)CN(C)C)cc1Nc1nccc(-c2c(-c3ccc(OCc4ccccc4)cc3)nc3ccccn23)n1 [Example 72, N^1-{3-[(4-{2-[4-(benzyloxy)phenyl]imidazo[1,2-a]pyridin-3-yl}pyrimidin-2-yl)amino]-4-methoxyphenyl}-N^2,N^2-dimethylglycinamide]
101 to 500	COc1ccc(N2CCSCC2)cc1Nc1nccc(-c2c(-c3ccc(OCc4ccccc4)c(OC)c3)nc3ccccn23)n1 [Example 73, 4-{2-[4-(benzyloxy)-3-methoxyphenyl]imidazo[1,2-a]pyridin-3-yl}-N-(2-methoxy-5-thiomorpholin-4-ylphenyl)pyrimidin-2-amine]
< 25	COc1ccc(N2CCS(=O)(=O)CC2)cc1Nc1nccc(-c2c(-c3ccc(OCc4ccccc4)c(OC)c3)nc3ccccn23)n1 [Example 74, 4-{2-[4-(benzyloxy)-3-methoxyphenyl]imidazo[1,2-a]pyridin-3-yl}-N-[5-(1,1-dioxidothiomorpholin-4-yl)-2-methoxyphenyl]pyrimidin-2-amine]
< 25	CN(C)CCc1cccc(Nc2nccc(-c3c(-c4ccc(OCc5ccccc5)cc4)nn4ccccc34)n2)c1 [Example 75, 4-{2-[4-(benzyloxy)phenyl]pyrazolo[1,5-a]pyridin-3-yl}-N-{3-[2-(dimethylamino)ethyl]phenyl}pyrimidin-2-amine]
< 25	CN(C)CCc1cccc(Nc2nccc(-c3c(-c4ccc(OCc5ccccc5)cc4)nn4ncccc34)n2)c1 [Example 76, 4-{2-[4-(benzyloxy)phenyl]pyrazolo[1,5-b]pyridazin-3-yl}-N-{3-[2-(dimethylamino)ethyl]phenyl}pyrimidin-2-amine]
> 1000	CN(C)CCc1cccc(Nc2nccc(-c3c(-c4ccc(OCc5ccccc5)cc4)nn4cc(F)ccc34)n2)c1 [Example 77, 4-{2-[4-(benzyloxy)phenyl]-6-fluoropyrazolo[1,5-a]pyridin-3-yl}-N-{3-[2-(dimethylamino)ethyl]phenyl}pyrimidin-2-amine]
